Measurements published in patent US20130202629A1, “USES OF PHOSPHOLIPID CONJUGATES OF SYNTHETIC TLR7 AGONISTS” (The Regents of the University of California, priority 2010, published 2013).
“And” between values parts separate entries of the source, which are not always exact repeats. Equal values may be shown once. “Also recorded” adds a separate entry of the source.

How the values were obtained:
TLR7 [1] = molecular target: T1, TLR7 (Homo sapiens, UniProt Q9NYK1); assay: Cytokine induction (IL-6, IFNalpha1; Luminex) in human PBMC; type: cell-based; conditions: 18 hours, IL-6 (FIG. 3A)
T1 sequence (Q9NYK1 27-1049): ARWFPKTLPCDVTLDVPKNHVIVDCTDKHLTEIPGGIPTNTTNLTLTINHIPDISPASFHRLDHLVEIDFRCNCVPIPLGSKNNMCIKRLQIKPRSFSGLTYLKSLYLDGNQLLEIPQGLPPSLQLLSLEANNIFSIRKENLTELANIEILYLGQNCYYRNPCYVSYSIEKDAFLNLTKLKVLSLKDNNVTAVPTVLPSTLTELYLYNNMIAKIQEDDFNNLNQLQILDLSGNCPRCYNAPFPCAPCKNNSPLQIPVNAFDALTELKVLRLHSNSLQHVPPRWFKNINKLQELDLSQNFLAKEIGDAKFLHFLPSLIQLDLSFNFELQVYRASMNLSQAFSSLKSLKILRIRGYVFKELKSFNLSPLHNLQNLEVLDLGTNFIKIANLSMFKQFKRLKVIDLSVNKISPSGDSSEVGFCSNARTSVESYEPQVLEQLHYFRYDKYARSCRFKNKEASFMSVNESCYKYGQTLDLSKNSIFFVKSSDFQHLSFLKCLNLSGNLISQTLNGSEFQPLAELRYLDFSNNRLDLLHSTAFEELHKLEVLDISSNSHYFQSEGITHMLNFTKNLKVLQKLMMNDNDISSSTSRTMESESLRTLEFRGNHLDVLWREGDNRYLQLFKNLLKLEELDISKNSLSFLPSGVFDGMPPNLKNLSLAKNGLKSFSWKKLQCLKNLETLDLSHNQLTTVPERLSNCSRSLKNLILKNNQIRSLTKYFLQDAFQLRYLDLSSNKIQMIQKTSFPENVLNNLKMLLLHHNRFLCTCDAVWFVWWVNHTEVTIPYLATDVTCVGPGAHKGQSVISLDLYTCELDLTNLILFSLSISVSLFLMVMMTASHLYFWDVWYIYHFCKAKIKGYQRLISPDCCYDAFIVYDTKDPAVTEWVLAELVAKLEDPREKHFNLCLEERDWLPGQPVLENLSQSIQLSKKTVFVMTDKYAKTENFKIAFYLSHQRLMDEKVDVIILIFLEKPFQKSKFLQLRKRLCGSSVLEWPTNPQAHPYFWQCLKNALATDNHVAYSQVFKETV

C57BL/6 mice = assay: In vivo kinetics of serum pro-inflammatory cytokine induction after intravenous injection; design: species or system mouse; conditions: i.v., 200 nmol per animal
Procedure: The mice were intravenously injected with TLR7 agonists and their conjugates (40 nmol compound (4a) or 200 nmol SM and compounds (6), (8), or (9) per mouse). Blood samples were collected 2, 4, 6, 24 or 48 hours after injections. Sera were separated and kept at −20° C. until use. The levels of cytokines (e.g. IL-6 and TNF-α in the sera were measured by Luminex bead microassay, and the results presented in FIGS. 4A-B. Data are mean±SEM of five mice and are representative of two independent experiments. The minimum detection levels of IL-6 and TNF-α are 5 pg/mL and 10 pg/mL, respectively.
Cytokine induction by compounds (4a), (6), and (9), were sustained for up to 6 hours.

Solubility = type: physicochemical; conditions: aqueous solution / suitable solvents for testing
TLR7 [2] = molecular target: T2, TLR7 (Mus musculus, UniProt P58681); assay: In vitro cytokine induction (TNF-alpha, IL-6, IL-12; ELISA) in murine macrophages: RAW264.7 cells and BMDM; type: cell-based; conditions: RAW264.7 and BMDM, 18 hours; b281 also in vivo
T2 construct: BMDM were prepared from C57BL/6 and TLR7 deficient mice; endogenous in cells; host or cells: RAW264.7 (ATCC); bone marrow derived macrophages from C57BL/6 mice
T2 sequence (P58681 27-1050): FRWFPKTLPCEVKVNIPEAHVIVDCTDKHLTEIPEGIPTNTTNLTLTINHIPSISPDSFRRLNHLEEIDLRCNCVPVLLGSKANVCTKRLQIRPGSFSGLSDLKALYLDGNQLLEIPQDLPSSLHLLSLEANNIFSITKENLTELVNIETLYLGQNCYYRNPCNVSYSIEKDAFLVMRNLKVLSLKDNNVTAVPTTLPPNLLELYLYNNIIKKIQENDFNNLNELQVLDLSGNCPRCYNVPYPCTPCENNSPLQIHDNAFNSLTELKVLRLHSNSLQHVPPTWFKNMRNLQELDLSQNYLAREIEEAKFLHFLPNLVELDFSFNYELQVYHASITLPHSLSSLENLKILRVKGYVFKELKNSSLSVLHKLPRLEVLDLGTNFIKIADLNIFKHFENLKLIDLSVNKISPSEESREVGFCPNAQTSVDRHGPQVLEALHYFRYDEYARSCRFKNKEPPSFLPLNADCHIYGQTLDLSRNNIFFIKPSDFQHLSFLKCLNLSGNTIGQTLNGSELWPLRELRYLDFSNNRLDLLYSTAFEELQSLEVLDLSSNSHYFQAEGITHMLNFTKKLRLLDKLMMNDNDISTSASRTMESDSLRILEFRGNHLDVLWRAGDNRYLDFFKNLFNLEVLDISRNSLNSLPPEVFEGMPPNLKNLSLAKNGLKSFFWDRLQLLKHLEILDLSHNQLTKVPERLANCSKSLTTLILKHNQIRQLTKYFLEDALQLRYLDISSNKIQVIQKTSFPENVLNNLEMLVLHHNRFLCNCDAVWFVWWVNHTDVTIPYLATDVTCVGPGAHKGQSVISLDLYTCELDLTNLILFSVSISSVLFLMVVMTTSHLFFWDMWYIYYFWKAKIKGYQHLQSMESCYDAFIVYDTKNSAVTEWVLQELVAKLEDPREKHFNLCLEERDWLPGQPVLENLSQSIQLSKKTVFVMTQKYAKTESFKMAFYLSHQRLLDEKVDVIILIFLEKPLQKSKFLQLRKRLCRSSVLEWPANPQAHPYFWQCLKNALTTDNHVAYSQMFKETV
Procedure: In vitro measurements of cytokine induction were performed using the mouse leukemic monocyte macrophage cell line, RAW264.7. […] BMDM were prepared from C57BL/6 and TLR7 deficient mice as described in Wu, C. C et al., “Immunotherapeutic activity of a conjugate of a Toll-like receptor 7 ligand”, Proc. Natl. Acad. Sci. USA, 104:3990 (2007).
In general, RAW264.7 cells or BMDM were incubated with various concentrations of conjugates for 18 hours at 37° C., 5% CO2 and culture supernatants were collected. The levels of cytokines (IL-6, IL-12 or TNF-α in the supernatants were determined by ELISA (BD Biosciences Pharmingen, La Jolla, Calif.) (Cho, H. J et al., “Immunostimulatory DNA-based vaccines induce cytotoxic lymphocyte activity by a T-helper cell-independent mechanism” [see comments], Nat. Biotechnol., 18:509 (2000)), and the results presented in FIGS. 2A-D. Data are mean±SEM of triplicates and are representative of three independent experiments. Minimum detection levels of these cytokines were 15 pg/mL.
TNFα levels were measured (see FIG. 2A) by incubating approximately 1×10^6/mL RAW 264.7 cells with the various conjugates or controls, as described above. IL-6 and IL-12 levels were measured (see FIGS. 2B-D) by incubating 0.5×10^6/mL BMDM with the various conjugates or controls, as described above. […]

TLR7 [3] = assay: IL-12 and IL-6 induction in BMDM from wild type and TLR7 deficient mice; type: cell-based, mouse; conditions: BMDM from TLR7 deficient (TLR7-KO) mice
mice = conditions: cited from earlier work

SMILES	order of TLR7 conjugate potency (TLR7 [1])	serum IL-6 induction (C57BL/6 mice)	serum TNFα induction (C57BL/6 mice; any point post injection)	solubility, in words (Solubility)	potency of cytokine induction compared to unconjugated TLR7 (SM), in words (TLR7 [2])	IL-12 and IL-6 induction in TLR7 deficient BMDM (TLR7 [3])	anorexic effects and hypothermia in mice (mice; mouse, in vivo)	minimum dose that induced the anorectic reaction (mice; mucosal administration) [nmoles per mice]	course of serum cytokine levels after injection, in words (C57BL/6 mice)
COCCOc1nc(N)c2nc(O)n(Cc3ccc(C(=O)NCCOCCOCCOCCOCCOCCOCCOCCOCCOCCOCCn4cc(CCC(=O)O)nn4)cc3)c2n1 [Compound 8, 3-(1-(1-(4-((6-amino-8-hydroxy-2-(2-methoxyethoxy)-9H-purin-9-yl)methyl)phenyl)-1-oxo-5,8,11,14,17,20,23,26,29,32-decaoxa-2-azatetratriacontan-34-yl)-1H-1,2,3-triazol-4-yl)propanoic acid]	(4b)>(6)>(9)>/=SM>(8) and 4b>6>9>SM=8	only a low level of IL-6	no significant induction of TNFα	solubility improves dramatically	less potency compared to the unconjugated TLR7 (SM); also recorded: attenuated	little or no IL-12 and IL-6	–	–	–
COCCOc1nc(N)c2nc(O)n(Cc3ccccc3)c2n1 [SM, 9-benzyl-8-hydroxy-2-(2-methoxyethoxy) adenine, reference compound]	–	–	–	insoluble in aqueous solution	–	little or no IL-12 and IL-6	can induce anorexic effects and hypothermia	50	declined rapidly after 2 hours
